# In patent US20190030053A1, “COMPOSITION FOR INCREASING EXPRESSION OF PGC-1alpha” (BENEBIOSIS CO., LTD., priority 2016, published 2019):
# Columns and labels:
# PGC-1α and related genes = assay: Abdominal fat gene expression in high-fat diet ob mouse models; format: in vivo; details: ob mice, oral 0.1 mg/kg/day, 10 weeks
# Procedure: In order to investigate gene expression changes and topical fat removal effects by treatment with SL (3′-SL & 6′-SL) composition in mouse models, 4-week-old male ob mouse (C57BL/6J-ob/ob) models were purchased from Central Lab Animal (Korea). Water was freely accessible, and a high-fat diet (Rodent Diet with 60 kcal % fat) was supplied for two weeks. […]
# Sialyllactose or DW was orally administered daily. […] The dietary intake and body weight change were measured every 5 days. […]
# Gene expression changes by the treatment with SL (3′-SL & 6′-SL) compositions were quantitatively compared in the abdominal part. RNA was extracted by TRIzol agent (Invitrogen). cDNA was synthesized by using RNA, which has been extracted as above and quantified, and a reverse transcription system (Promega, USA). The expression patterns of PGC-1α and related genes were measured by using pre-designed primers and probes (Applied Biosystems; PGC-1α, Mm00447181_m1, GAPDH, and Mm99999915_q1) for the synthesized cDNA and analysis targets (Fndc5, PGC-1α, Erra, UCP1, SOD2, and GPX1). […]
# telomerase = assay: Telomerase activity (TRAP) in vivo, aorta of arteriosclerosis models (ApoE−/−); set-up: species or system mouse; details: ApoE−/− mice, high-fat diet, oral 0.1 mg/kg/day, 6 weeks
# From the text: In order to investigate the aging-related chronic disease preventing effect through the control of telomerase functions and DNA damage by the treatment with SL (3′-SL & 6′-SL) compositions in arteriosclerosis models, two types of 24-week-old male model mice (PGC-1α^+/+ApoE^−/−) were randomly grouped into three different dietary treatment groups (8 animals per group) below, and the diets were maintained for 6 weeks (a total of 24 animals): • Control group: Arteriosclerosis models fed with a high-fat diet (Rodent Diet with 60 kcal % fat) (8 animals) • 3′-SL administration group: Arteriosclerosis models treated with 3′-sialyllactose (3′-SL, Sigma) (oral administration of 0.1 mg per kg of mouse weight per day) in addition to the high-fat diet group (8 animals) • 6′-SL administration group: Arteriosclerosis models treated with 6′-sialyllactose (6′-SL, Sigma) (oral administration of 0.1 mg per kg of mouse weight per day) in addition to the high-fat diet group (8 animals)
# In FIG. 20, the telomerase activity was measured using TRAP protocol (Wright et al., 1995). […] The fluorescence of the thus obtained TRAP product was measured using a fluorescent plate reader to quantify telomerase activity. Relative telomerase activity was normalized by the ratio of native […] to sulforhodamine (internal control standard), expressed as a percentage. […]
SMILES,"expression levels of analysis targets (Fndc5, PGC-1α, Erra, UCP1, SOD2, GPX1) in abdominal fat vs negative control (PGC-1α and related genes)",telomerase activity in aorta sample (in vivo) (telomerase)
"CC(=O)N[C@H]1[C@H]([C@H](O)[C@H](O)CO)O[C@@](OC[C@H]2O[C@@H](O[C@H]3[C@H](O)[C@@H](O)[C@H](O)O[C@@H]3CO)[C@H](O)[C@@H](O)[C@H]2O)(C(=O)O)C[C@@H]1O [6′-SL, α-NeuNAc-(2→6)-β-D-Gal-(1→4)-D-Glc]",about two-time significant increases,increased telomerase activity
"CC(=O)N[C@H]1[C@H]([C@H](O)[C@H](O)CO)O[C@@](O[C@H]2[C@@H](O)[C@@H](CO)O[C@@H](O[C@H]3[C@H](O)[C@@H](O)C(O)O[C@@H]3CO)[C@@H]2O)(C(=O)O)C[C@@H]1O (stereo partly drawn) [3′-SL, α-NeuNAc-(2→3)-β-D-Gal-(1→4)-D-Glc]",relatively low compared with 6′-SL,increased telomerase activity
